Data on 1 compound can be found in patent US20110053773A1, “METHODS OF IMPROVING NUTRITIONAL VALUE OF PLANTS” (UNIVERSITY OF TENNESSEE RESEARCH FOUNDATION, priority 2009, published 2011).

The subject of the test is switchgrass "Alamo". The test is described as follows: Sugar content of switchgrass after isoxaben (Example 6). Format: in vivo. The note with it: 1120 g ai/ha + 1% v/v crop oil concentrate POST; harvested 8 weeks after application; % of fresh weight basis. The procedure: Switchgrass was harvested 8 weeks after application and three replicates were analyzed compared with an untreated check. Sugar content was assessed on a percentage of the fresh weight and values were converted to a percentage of values derived from the untreated control. Isoxaben increased fructose by 44%, glucose by 33%, and total sugars by 38% in comparison to the untreated check. Switchgrass is currently under evaluations as a biofuels crop whereby enhanced sugar output per acre is desired.

Regarding `CCC(C)(CC)c1cc(NC(=O)c2c(OC)cccc2OC)on1` [Isoxaben, isoxaben], the “fructose increase in comparison to the untreated check” value is listed as 44%, the “glucose increase in comparison to the untreated check” value amounted to 33% and the “total sugars increase in comparison to the untreated check” value is reported as 38%.
